PMC10618743 (Cancer Discovery, 2023)

Tests used:
[1] = system: pAKT (S473) in panel of human tumor cell lines harboring PI3Kα kinase-domain mutations and SKBR3; assay: pAKT (S473) HTRF, human tumor cell line panel; type: cell-based; conditions: SK-BR-3, 1 hour treatment, read-out: pAKT IC50 values across the panel of cell lines
Experimental: (§1) A 384-well phospho-AKT (S473) HTRF (Homogenous Time-Resolve Fluorescence; PerkinElmer, #64AKSPEH) assay was used for target engagement. Each well was seeded with cell numbers indicated in Supplementary Table S3 in a volume of 12.5 μL in complete, phenol red-free media and then treated for 1 hour at 37°C with 5% CO2 before reading on a PHERAstar plate reader.

[2] = system: pAKT (S473) in BT20 cells; assay: pAKT (S473) HTRF; type: cell-based; conditions: Homo sapiens, BT-20; BT20, H1047R + P539R; 1 hour; read-out: pAKT HTRF GMean IC50 (95% CI)
Experimental: as §1

[3] = system: pAKT (S473) in CAL148 cells; assay: pAKT (S473) HTRF; type: cell-based; conditions: Homo sapiens, CAL-148; CAL148, H1047R + D350N; 1 hour; read-out: pAKT HTRF GMean IC50 (95% CI)
Experimental: as §1

[4] = system: pAKT (S473) in CAL33 cells; assay: pAKT (S473) HTRF; type: cell-based; conditions: Homo sapiens, CAL-33; CAL33, H1047R; 1 hour; read-out: pAKT HTRF GMean IC50 (95% CI)
Experimental: as §1

[5] = system: pAKT (S473) in DETROIT562 cells; assay: pAKT (S473) HTRF; type: cell-based; conditions: Homo sapiens, Detroit 562; DETROIT562, H1047R; 1 hour; read-out: pAKT HTRF GMean IC50 (95% CI)
Experimental: as §1

[6] = system: pAKT (S473) in EFM19 cells; assay: pAKT (S473) HTRF; type: cell-based; conditions: Homo sapiens, EFM-19; EFM19, H1047L; 1 hour; read-out: pAKT HTRF GMean IC50 (95% CI)
Experimental: as §1

[7] = system: pAKT (S473) in GP2D cells; assay: pAKT (S473) HTRF; type: cell-based; conditions: Homo sapiens, H1047L, 1 hour, read-out: pAKT HTRF GMean IC50 (95% CI)
Experimental: as §1

[8] = system: pAKT (S473) in HCC1954 cells; assay: pAKT (S473) HTRF; type: cell-based; conditions: Homo sapiens; HCC1954, H1047R; 1 hour; read-out: pAKT HTRF GMean IC50 (95% CI)
Experimental: as §1

[9] = system: pAKT (S473) in NCIH1048 cells; assay: pAKT (S473) HTRF; type: cell-based; conditions: Homo sapiens, NCI-H1048; NCIH1048, H1047R + K111R; 1 hour; read-out: pAKT HTRF GMean IC50 (95% CI)
Experimental: as §1

[10] = system: pAKT (S473) in OAW42 cells; assay: pAKT (S473) HTRF; type: cell-based; conditions: Homo sapiens, OAW-42; OAW42, H1047L; 1 hour; read-out: pAKT HTRF GMean IC50 (95% CI)
Experimental: as §1

[11] = system: pAKT (S473) in SKBR3 cells; assay: pAKT (S473) HTRF; type: cell-based; conditions: Homo sapiens, SK-BR-3; SKBR3, WT PI3Kα; 1 hour; read-out: pAKT HTRF GMean IC50 (95% CI)
Experimental: as §1

[12] = system: pAKT (S473) in T47D cells; assay: pAKT (S473) HTRF; type: cell-based; conditions: Homo sapiens, 1 h, read-out: pAKT HTRF GMean IC50 (95% CI)
Experimental: as §1

BT20 cells = assay: Cell viability CellTiter-Glo; type: cell-based; conditions: Homo sapiens, BT-20; BT20, H1047R + P539R; 72 hours; read-out: CTGlo GMean GI50 (95% CI)
Experimental: (§2) Cell viability was measured using CellTiter-Glo (Promega, #G9243). Indicated cell lines were seeded according to Supplementary Table S3 in 50 μL of media in 384-well plates, with 72 hours of treatment at 37°C with 5% CO2.

DETROIT562 cells = assay: Cell viability CellTiter-Glo; type: cell-based; conditions: Homo sapiens, Detroit 562; DETROIT562, H1047R; 72 hours; read-out: CTGlo GMean GI50 (95% CI)
Experimental: as §2

EFM19 cells = assay: Cell viability CellTiter-Glo; type: cell-based; conditions: Homo sapiens, EFM-19; EFM19, H1047L; 72 hours; read-out: CTGlo GMean GI50 (95% CI)
Experimental: as §2

GP2D cells = assay: Cell viability CellTiter-Glo; type: cell-based; conditions: Homo sapiens, H1047L, 72 hours, read-out: CTGlo GMean GI50 (95% CI)
Experimental: as §2

HCC1954 cells = assay: Cell viability CellTiter-Glo; type: cell-based; conditions: Homo sapiens; HCC1954, H1047R; 72 hours; read-out: CTGlo GMean GI50 (95% CI)
Experimental: as §2

SKBR3 cells = assay: Cell viability CellTiter-Glo; type: cell-based; conditions: Homo sapiens, SK-BR-3; SKBR3, WT PI3Kα; 72 hours; read-out: CTGlo GMean GI50 (95% CI)
Experimental: as §2

T47D cells = assay: Cell viability CellTiter-Glo; type: cell-based; conditions: Homo sapiens, H1047R, 72 hours, read-out: CTGlo GMean GI50 (95% CI)
Experimental: as §2

[13] = Insulin tolerance test (ITT) and oral glucose tolerance test (OGTT); type: in vivo, mouse; conditions: 50 mg/kg dose levels
[14] = system: CAL-33 (H1047R PI3Kα) HNSCC xenograft; assay: CAL-33 xenograft efficacy study; type: in vivo, mouse; conditions: Alpelisib 50 mg/kg QD, Day 28
[15] = system: PI3Kα-mutant, ER+HER2- metastatic breast cancer; conditions: alpelisib in combination with fulvestrant, median follow-up 20 months; cited from earlier work
[16] = alpelisib with ribociclib and fulvestrant, in the clinic; cited from earlier work
[17] = Tolerability measures in CDX studies: body weight and insulin 1 hour after dose; conditions: for Δ Insulin: Alpelisib 50 mg/kg QD, one-hour post dose

## Cc1nc(NC(=O)N2CCC[C@H]2C(N)=O)sc1-c1ccnc(C(C)(C)C(F)(F)F)c1 [alpelisib]
[1]
  IC50: 28 to 268 nM
[2]
  IC50: 136 nM
[3]
  IC50: 268 nM
[4]
  IC50: 71 nM
[5]
  IC50: 125 nM
[6]
  IC50: 43 nM
[7]
  IC50: 66 nM
[8]
  IC50: 256 nM
[9]
  IC50: 28 nM
[10]
  IC50: 82 nM
[11]
  IC50: 41 nM
[12]
  IC50: 58 nM
BT20 cells
  GI50: 516 nM
DETROIT562 cells
  GI50: 436 nM
EFM19 cells
  GI50: 127 nM
GP2D cells
  GI50: 298 nM
HCC1954 cells
  GI50: 384 nM
SKBR3 cells
  GI50: 335 nM
T47D cells
  GI50: 334 nM
[13]
  insulin resistance: overt insulin resistance
[14]
  TGI (%): 79%
[15]
  progression-free survival time: 11.0 months
[16]
  tolerability of triple combination: not tolerated in the clinic
[17]; Cal33 model
  Δ Insulin: +1.07 ng/mL
[17]; Detroit 562 model
  Δ Insulin: +2.33 ng/mL
[17]; GP2D model
  Δ Insulin: +1.59 ng/mL
[17]; HCC1954 model
  Δ Insulin: +2.38 ng/mL
[17]; NCI-H1048 model
  Δ Insulin: +1.21 ng/mL
[17]; STX-478 100 mg/kg q.d., alpelisib 50 mg/kg q.d.
  effects on body weight across studies: No treatment-specific effects on body weight
[17]; T-47D model
  Δ Insulin: +0.79 ng/mL
